This data set relates to IPSC-NSC. The experiment in a line: Neuronal differentiation of hybrid spheroids with DAPT loaded on nanosheets (qPCR, immunostaining). Type of data set: cell-based. On the procedure:
Lastly, because Mn^2+ ions are MRI active, they could be used for MRI monitoring of degradation and drug release. A 7-day degradation study was performed, and it was shown that the Mn2+ ions generated correlated with the amount of the fluorescent model drug that was released, showing that the drug was released through the degradation of the scaffold nanosheets. After confirming the drug loading and degradation properties of the scaffold nanosheets and the hybrid spheroids, varying concentrations of DAPT were then loaded on the surface of the nanosheets at […] of from 0 to 50 μM. The spheres were cultured for 7 days and then the neuronal differentiation was analyzed using both qPCR and immunostaining.

Where [1] appears, read: day 7, loaded concentration of 5 and 10 μM.

Turning to `C[C@H](NC(=O)Cc1cc(F)cc(F)c1)C(=O)N[C@H](C(=O)OC(C)(C)C)c1ccccc1` [DAPT, N-[N-(3,5-difluorophenacetyl)-L-alanyl]-S-phenylglycine t-butyl ester], where the note is “50 μM condition”, the cell death entry is “significant cell death” and the neurogenesis entry is given as “impaired neurogenesis”. Moreover, under setting [1], the “Tuj1 positive cells by immunostaining” value is “significant increase in Tuj1 positive cells”; the axon length entry is “longer axons”; the “increase in mRNA expression of Tuj1” value is “ca. 1.8 fold”; the “mature phenotype markers Map2 and NeuN (qPCR and immunostaining)” value was “increase in mature phenotype markers”.

(Values after patent US20220049238A1, “Synthetic Matrix Assembled and Rapidly Templated Spheroids, Organoids and 3D Cell Cultures” (Rutgers, The State University of New Jersey, priority 2020, published 2022).)
